Test results taken from PubChem BioAssay (NCI).
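A five-concentration, 48-hour dose response in 96-well plates underlies each endpoint, interpolated linearly between surrounding concentrations. At the GI50, growth is halved. TGI marks complete inhibition of growth.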

Experiments:
Test in all cases: inhibition of tumour cell growth, NCI panel, 48 h
SW-620 colon = tested on: SW-620 colon
HCT-15 colon = tested on: HCT-15 colon
SF-268 CNS = tested on: SF-268 CNS
HOP-62 NSCLC = tested on: HOP-62 NSCLC
IGROV1 ovarian = tested on: IGROV1 ovarian
PC-3 prostate = tested on: PC-3 prostate
786-0 renal = tested on: 786-0 renal
UACC-257 melanoma = tested on: UACC-257 melanoma
COLO 205 colon = tested on: COLO 205 colon
SF-539 CNS = tested on: SF-539 CNS

SMILES | TGI (SW-620 colon) [µM] | TGI (HCT-15 colon) [µM] | TGI (SF-268 CNS) [µM] | TGI (HOP-62 NSCLC) [µM] | TGI (IGROV1 ovarian) [µM] | TGI (PC-3 prostate) [µM] | TGI (786-0 renal) [µM] | TGI (UACC-257 melanoma) [µM] | TGI (COLO 205 colon) [µM] | TGI (SF-539 CNS) [µM] | GI50 (SW-620 colon) [µM] | GI50 (HCT-15 colon) [µM] | GI50 (SF-539 CNS) [µM] | GI50 (SF-268 CNS) [µM] | GI50 (HOP-62 NSCLC) [µM] | GI50 (IGROV1 ovarian) [µM] | GI50 (PC-3 prostate) [µM] | GI50 (UACC-257 melanoma) [µM] | GI50 (COLO 205 colon) [µM]
Cc1sc2c(c1C)C(=O)c1cccn1-2 | > 100 | > 100 | > 100 | > 100 | > 100 | > 100 | > 100 | > 100 | > 100 | – | – | – | – | – | – | – | – | – | –
CCCCn1c(-c2ccccc2)cs/c1=N\N=C1C=C(C(C)(C)C)C(=O)C(C(C)(C)C)=C1 | > 100 | > 100 | > 100 | > 100 | > 100 | – | > 100 | > 100 | > 100 | > 100 | – | – | – | – | – | – | – | – | –
COc1cc(C2CC(C)(N3CCOCC3)Oc3cc4c(cc32)OCO4)cc(OC)c1OC (stereo unspecified) | > 100 | > 100 | > 100 | > 100 | > 35.9 | > 100 | 11.5 | > 100 | – | – | – | – | – | – | – | – | – | – | –
C=C1CC[C@@]2(C)[C@@H]([C@@H]1C)[C@H]1CC[C@@H]3[C@@]4(C)CC[C@H](O)C(C)(C)[C@@H]4CC[C@@]3(C)[C@]1(C)C[C@@H]2O | > 100 | 11.2 | 9.76 | 9.18 | 3.77 | 10.3 | – | 31.3 | > 100 | 6.29 | – | – | – | – | – | – | – | – | –
O=[N+]([O-])c1ccc(CSc2nn(Cc3ccc([N+](=O)[O-])cc3)cc3ncnc2-3)cc1 | > 100 | > 100 | – | > 100 | 52.1 | > 100 | > 100 | > 100 | > 100 | 95.5 | – | – | – | – | – | – | – | – | –
COc1ccc2[nH]c3cc4c(=O)c5cc(OC)ccc5[nH]c4cc3c(=O)c2c1 | > 100 | > 100 | > 100 | > 100 | > 100 | > 100 | > 100 | > 100 | > 100 | – | – | – | – | – | – | – | – | – | –
Cc1ccc(S(=O)(=O)N(CC(O)COc2ccccc2)c2c(F)c(F)cc(F)c2F)cc1 (stereo unspecified) | 85 | 52 | 38.2 | 52.6 | – | 45 | 58 | – | 29.1 | 36 | – | – | – | – | – | – | – | – | –
CC1=C(C(=O)NNC(=O)Cc2ccccc2)CC(C(=O)NNC(=O)Cc2ccccc2)=C(C)N1 | > 100 | > 100 | > 100 | > 100 | > 100 | – | > 100 | > 100 | > 100 | > 100 | – | – | – | – | – | – | – | – | –
Cc1ccsc1/C=N/NC1=NCCN1 | > 100 | > 100 | > 100 | > 100 | > 100 | > 100 | > 100 | > 100 | > 100 | – | – | – | – | – | – | – | – | – | –
N#C/C(=C\c1ccc(O)c(O)c1)c1c(C#N)c(N)nn1-c1ccccc1 | > 100 | 36.8 | > 100 | 40.8 | 14.5 | – | 21.1 | > 100 | 61.1 | 18.9 | – | – | – | – | – | – | – | – | –
C1=N[C@]23C(=N[C@H](N=C2NCc2ccco2)[C@]24N=CNC2=N[C@H]3N=C4NCc2ccco2)N1 | > 100 | > 100 | > 100 | > 100 | > 100 | > 100 | – | > 100 | > 100 | > 100 | > 100 | > 100 | > 100 | > 100 | > 100 | > 100 | > 100 | > 100 | > 100
O=C(Nc1ccccc1[N+](=O)[O-])/C(=N/Nc1cccc(Cl)c1)c1c(O)c2ccccc2oc1=O | > 100 | > 100 | > 100 | – | > 100 | – | > 100 | > 100 | 47.6 | > 100 | – | – | – | – | – | – | – | – | –
CN(C(=O)[C@H](NC(=O)OCc1ccccc1)c1ccccc1)C1CCCCC1N1CCCC1 (stereo partly specified) | > 100 | > 100 | > 100 | > 100 | > 100 | > 100 | > 100 | 63.2 | > 100 | – | – | – | – | – | – | – | – | – | –
C=CCn1c(-c2cc(C(C)(C)C)c(O)c(C(C)(C)C)c2)cs/c1=N\C(P(=O)(O)O)P(=O)(O)O | > 100 | > 100 | > 100 | > 100 | > 100 | > 100 | > 100 | – | > 100 | > 100 | – | – | – | – | – | – | – | – | –
COC(=O)C1OC(O[C@H]2CC[C@]3(C)[C@H]4CC=C5[C@@H]6CC(C)(C)CC[C@]6(C(=O)OC)CC[C@@]5(C)[C@]4(C)CC[C@H]3C2(C)C)C(O)C(O)C1O (stereo partly specified) | 34.6 | 27.1 | 39.3 | 31.9 | 37.4 | 28.7 | 19.2 | 35.4 | 29.9 | – | – | – | – | – | – | – | – | – | –
O=C(NN1C(=O)C(Cl)C1c1cccc(O)c1)c1ccccc1O (stereo unspecified) | – | > 100 | > 100 | – | > 100 | – | – | > 100 | – | > 100 | – | – | – | – | – | – | – | – | –
O=C1c2ccccc2N=C(c2cc3c(cc2Cl)Sc2nccn2S3(=O)=O)OS(=O)(=O)N1c1ccccc1 | > 100 | 50.8 | > 100 | 76.2 | – | > 100 | > 100 | > 100 | 42.6 | > 100 | – | – | – | – | – | – | – | – | –
O=S(=O)(O)c1ccc2c(N=Nc3cccc4ccccc34)c(O)ccc2c1 | > 100 | > 100 | > 100 | > 100 | > 100 | > 100 | > 100 | > 100 | > 100 | – | – | – | – | – | – | – | – | – | –
CCOC(=O)NN(C(=O)OCC)c1ccc(N=Nc2ccc(OC)cc2)n1C | – | 39.1 | – | 86.8 | 87.2 | 53.4 | 97.9 | 56.1 | 41.3 | 40.5 | – | – | – | – | – | – | – | – | –
CC1CC(=O)Nc2ccc(Cl)cc2N1C(=O)CN1CCC(CCCCN(C)C)CC1 (stereo unspecified) | > 100 | > 100 | > 100 | > 100 | > 100 | – | > 100 | > 100 | > 100 | – | – | – | – | – | – | – | – | – | –
CC(C)OP(=O)(OC(C)C)C(=NCCO)NNc1ccc([N+](=O)[O-])cc1 | > 100 | > 100 | > 100 | > 100 | – | – | > 100 | > 100 | > 100 | > 100 | – | – | – | – | – | – | – | – | –
COc1cccc(N/C(C)=C2/CCOC2=O)c1 | > 10 | > 10 | > 10 | > 10 | > 10 | > 10 | – | – | > 10 | > 10 | – | – | – | – | – | – | – | – | –
